Several values for one entry are separate records, joined by “and”; a condition that tells them apart may be missing. Equal entries are not always repeated.
What was measured:
CARD14 domain 1 = target: T1, CARD14 domain 1 (Homo sapiens, UniProt Q9BXL6); experiment: G assay PDZ-PL binding; conditions: peptide 10 uM, protein 5
T1 construct: made in house; host or cells: E. coli (DH5alpha, BL21 or JM109)
Method: (§1) (1) A PDZ-domain polypeptide is bound to a surface, e.g. a protein binding surface. In a preferred embodiment, a GST/PDZ fusion protein containing one or more PDZ domains is bound to a polystyrene 96-well plate. […] In one embodiment, the GST/PDZ fusion protein is bound via an anti-GST antibody that is coated onto the 96-well plate. Adequate binding to the plate can be achieved when: • a. 100 uL per well of 5 ug/mL goat anti-GST polyclonal antibody (Pierce) in PBS is added to a polystyrene 96-well plate (e.g., Num Polysorb) at 4° C. for 12 hours. • b. The plate is blocked by addition of 200 uL per well of PBS/BSA for 2 hours at 4° C. • c. The plate is washed 3 times with PBS. • d. 50 uL per well of 5 ug/mL GST/PDZ fusion protein) or, as a negative control, GST polypeptide alone (i.e. not a fusion protein) in PBS/BSA is added to the plate for 2 hours at 4° C. • e. The plate is again washed 3 times with PBS.
(§2) (2) Biotinylated PL peptides are allowed to react with the surface by addition of 50 uL per well of 20 uM solution of the biotinylated peptide in PBS/BSA for 10 minutes at 4° C., followed by an additional 20 minute incubation at 25° C.
(§3) (3) The binding of the biotinylated peptide to the GST/PDZ fusion protein surface can be detected using a variety of methods and detectors known to one of skill in the art. In one embodiment, 100 uL per well of 0.5 ug/mL streptavidin-horse radish peroxidase (HRP) conjugate dissolved in BSA/PBS is added and allowed to react for 20 minutes at 4° C. The plate is then washed 5 times with 50 mM Tris pH 8.0 containing 0.2% Tween 20, and developed by addition of 100 uL per well of HRP-substrate solution (TMB, Dako) for 20 minutes at room temperature (RT). The reaction of the HRP and its substrate is terminated by addition of 100 uL per well of 1M sulfuric acid, and the absorbance of each well of the plate is read at 450 nm.
(§4) (4) Specific binding of a PL peptide and a PDZ domain polypeptide is determined by comparing the signal from the well(s) in which the PL peptide and PDZ domain polypeptide are combined, with the background signal(s). The background signal is the signal found in the negative control(s). Typically a specific or selective reaction will be at least twice background signal, more typically more than 5 times background, and most typically 10 or more times the background signal. In addition, a statistically significant reaction will involve multiple measurements of the reaction with the signal and the background differing by at least two standard errors, more typically four standard errors, and most typically six or more standard errors. Correspondingly, a statistical test (e.g. a T-test) comparing repeated measurements of the signal with-repeated measurements of the background will result in a p-value<0.05, more typically a p-value<0.01, and most typically a p-value<0.001 or less. As noted, in an embodiment of the “G” assay, the signal from binding of a given PL peptide to immobilized (surface bound) GST polypeptide alone is one suitable negative control (sometimes referred to as “B 1”). Because all measurement are done in multiples (i.e. at least duplicate) the arithmetic mean (or, equivalently, average.) of several measurements is used in determining the binding, and the standard error of the mean is used in determining the probable error in the measurement of the binding. The standard error of the mean of N measurements equals the square root of the following: the sum of the squares of the difference between each measurement and the mean, divided by the product of (N) and (N−1). Thus, in one embodiment, specific binding of the PDZ protein to the platebound peptide is determined by comparing the mean signal (“mean S”) and standard error of the signal (“SE”) for a particular PL-PDZ combination with the mean B1. […]

PSD95 domain 2 = target: T2, PSD95 domain 2 (Homo sapiens, UniProt P78352); experiment: G assay PDZ-PL binding; conditions: vs GST only well, peptide 10 uM, protein 5
T2 construct: made in house; host or cells: E. coli (DH5alpha, BL21 or JM109)
Method: as §1, §2, §3, §4

T1 sequence (Q9BXL6 565-664): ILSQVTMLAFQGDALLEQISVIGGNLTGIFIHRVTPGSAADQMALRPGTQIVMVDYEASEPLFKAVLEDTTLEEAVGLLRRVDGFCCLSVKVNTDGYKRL

“20 mer peptide corresponding to the C-terminus of HPV16 E6 (PDZ ligand), biotinylated in binding assays; ends SSRTRRETQL (SEQ ID NO: 13) [HPV E6 #16]” was tested, and the “Ave OD” value (CARD14 domain 1; A450 nm) was 0.342, the “OD S/N” value (CARD14 domain 1; vs GST only well) was 1.52 and the “OD S/N” value (PSD95 domain 2) was 12.23 and 12.53.
